Assay results as given in PubChem BioAssay (NCI).
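In this assay, cells in 96-well plates receive the compound at five concentrations for 48 hours. Endpoints are linearly interpolated between the surrounding concentrations. The concentration for full growth arrest is given as TGI.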

What was measured:
Test in all cases: inhibition of tumour cell growth, NCI panel, 48 h
CAKI-1 renal = system: CAKI-1 renal
DU-145 prostate = system: DU-145 prostate
HOP-92 NSCLC = system: HOP-92 NSCLC
HT29 colon = system: HT29 colon
IGROV1 ovarian = system: IGROV1 ovarian
MOLT-4 leukemia = system: MOLT-4 leukemia
NCI-H23 lung = system: NCI-H23 lung
NCI-H460 lung = system: NCI-H460 lung
SK-MEL-28 melanoma = system: SK-MEL-28 melanoma
SNB-19 CNS = system: SNB-19 CNS
SNB-75 CNS = system: SNB-75 CNS
UACC-62 melanoma = system: UACC-62 melanoma

Compound | TGI (CAKI-1 renal) | TGI (DU-145 prostate) | TGI (HOP-92 NSCLC) | TGI (HT29 colon) | TGI (IGROV1 ovarian) | TGI (MOLT-4 leukemia) | TGI (NCI-H23 lung) | TGI (NCI-H460 lung) | TGI (SK-MEL-28 melanoma) | TGI (SNB-19 CNS) | TGI (SNB-75 CNS) | TGI (UACC-62 melanoma)
C/C(=N/NC(=S)Nc1cccc(Cl)c1)c1ccccn1 | 11.8 µM | 4.98 µM | 11.1 µM | 13.9 µM | 9.29 µM | 1.47 µM | 9.97 µM | 5.46 µM | 16 µM | 16.9 µM | 11.7 µM | 2.49 µM
Oc1cc(Cl)cc2cc(Cl)cnc12 | 57.7 µM | > 100 µM | 74.1 µM | > 100 µM | 22.6 µM | 11.5 µM | 24.4 µM | 14 µM | > 100 µM | > 100 µM | 94 µM | 7.81 µM
N#C/C(=C/n1c(=S)[nH]c2ccccc21)C(N)=O | > 100 µM | > 100 µM | > 100 µM | > 100 µM | > 100 µM | > 100 µM | > 100 µM | > 100 µM | > 100 µM | > 100 µM | > 100 µM | > 100 µM
CC(C)(C)c1cc(C(=O)C2Cc3ccccc3C(=O)O2)cc(C(C)(C)C)c1O (configuration not stated) | 52.5 µM | 28.3 µM | 45.3 µM | 35.5 µM | 32.6 µM | > 100 µM | 35.8 µM | 23.1 µM | 36.8 µM | 24.7 µM | 33.8 µM | 26.3 µM
O=C(CNc1nccs1)Nn1cnc2ccc(S(=O)(=O)Nc3nccs3)cc2c1=O | > 100 µM | > 100 µM | > 100 µM | > 100 µM | > 100 µM | > 100 µM | > 100 µM | > 100 µM | > 100 µM | > 100 µM | > 100 µM | > 100 µM
COC1=CC(=O)c2c(cc(COP(N)(=O)N(CCCl)CCCl)n2C)C1=O (configuration not stated) | < 0.0478 µM | 5.71 µM | 6.66 µM | 4.33 µM | 2.66 µM | 0.382 µM | 3.41 µM | 4.31 µM | 8.83 µM | 14.2 µM | 4.45 µM | 2.16 µM
Oc1cc(O)c2c(c1)O[C@H](c1cc(O)c(O)c(O)c1)[C@@H](O)C2 | > 100 µM | > 100 µM | > 10 µM | – | 38.9 µM | > 10 µM | 58.2 µM | 37.7 µM | > 100 µM | > 100 µM | 38.7 µM | –
C/C(=N/NC(=S)N(C)C)c1ccccc1O | > 100 µM | > 100 µM | > 100 µM | > 100 µM | > 100 µM | 97.7 µM | > 100 µM | 30.1 µM | > 100 µM | > 100 µM | 82.9 µM | 27 µM
C=C1C(=O)[C@]23C[C@H]1C[C@@H](O)[C@H]2[C@]1(COC3=O)[C@@H](OC(C)=O)CC[C@@](C)(COC(C)=O)[C@H]1C=O | 18.8 µM | > 50 µM | 22.3 µM | > 50 µM | > 50 µM | 18.2 µM | > 50 µM | > 50 µM | > 50 µM | > 50 µM | > 50 µM | > 50 µM
COc1ccc(OC)c(NC2=NCCO2)c1 | 28.8 µM | > 100 µM | 77.4 µM | > 100 µM | > 100 µM | > 100 µM | > 100 µM | > 100 µM | > 100 µM | 22.7 µM | > 100 µM | > 100 µM
O=C(OCC1CCCN2CCCCC12)c1cccnc1 (configuration not stated) | > 100 µM | > 100 µM | > 100 µM | > 100 µM | – | > 100 µM | > 100 µM | > 100 µM | > 100 µM | > 100 µM | > 100 µM | > 100 µM
C[C@]12C(=O)C=CCC1=CC[C@@H]1[C@@H]2[C@H]2CC3(O)C(=O)O[C@@]4(C)[C@H]5C[C@@]6(C)[C@@H]7[C@@]2(O)[C@]1(OC[C@H]6C(=O)O5)O[C@]734 (some centres not stated) | > 100 µM | > 100 µM | > 100 µM | > 100 µM | > 100 µM | 90.3 µM | 54.6 µM | > 100 µM | > 100 µM | > 100 µM | > 100 µM | > 100 µM
CC(C)(C)c1ccc(O)c(C(c2ccc([N+](=O)[O-])cc2)c2cc(C(C)(C)C)ccc2O)c1 | 2.88 µM | 6.14 µM | 3.7 µM | 4.47 µM | 4.37 µM | 5.14 µM | 4.23 µM | – | 3.72 µM | 5.36 µM | 3.9 µM | 3.2 µM
CC(C(=O)NCCNC(=O)CCC(=O)N(C)O)C(=O)NCCNC(=O)CCC(=O)N(C)O | > 100 µM | > 100 µM | > 100 µM | > 100 µM | > 100 µM | > 100 µM | > 100 µM | > 100 µM | > 100 µM | > 100 µM | > 100 µM | > 100 µM
Cc1ccc(S(=O)(=O)NC(=O)NCCc2ccc(O)c(O)c2)cc1 | > 100 µM | > 100 µM | > 100 µM | > 100 µM | > 100 µM | > 100 µM | > 100 µM | > 100 µM | > 100 µM | > 100 µM | > 100 µM | > 100 µM
COc1cc(OCc2nc3cc(C(F)(F)F)ccc3nc2-c2ccccc2)cc(OC)c1OC | > 100 µM | > 100 µM | > 100 µM | > 100 µM | > 100 µM | > 100 µM | > 100 µM | > 100 µM | > 100 µM | > 100 µM | > 100 µM | > 100 µM
CC(C)NCC(O)c1ccc(O)c2ncccc12 (configuration not stated) | > 100 µM | > 100 µM | > 100 µM | > 100 µM | > 100 µM | 46.9 µM | 78.7 µM | > 100 µM | > 100 µM | > 100 µM | > 100 µM | > 100 µM
Nc1nc2c(c(-c3ccccc3Cl)n1)COC/C2=C\c1ccccc1Cl | 31.9 µM | 32.6 µM | 29 µM | – | 34 µM | 34.6 µM | 34.8 µM | 39 µM | – | 29.8 µM | 35.3 µM | 30.6 µM
O=C(/C=C/c1ccc2c(c1)OCO2)NCCc1ccco1 | > 100 µM | > 100 µM | > 100 µM | > 100 µM | > 100 µM | > 100 µM | > 100 µM | > 100 µM | > 100 µM | > 100 µM | > 100 µM | > 100 µM
CC(=O)NNc1nc(C)c(C(/C=C/c2ccc([N+](=O)[O-])cc2)=N/NC(N)=O)s1 | > 100 µM | > 100 µM | > 100 µM | > 100 µM | > 100 µM | > 100 µM | > 100 µM | > 100 µM | > 100 µM | > 100 µM | > 100 µM | > 100 µM
N#CCCN(CCC#N)c1ccc(/C=C2\SC(=S)NC2=O)cc1 | 59.7 µM | > 100 µM | > 100 µM | > 100 µM | > 100 µM | > 100 µM | > 100 µM | > 100 µM | > 100 µM | > 100 µM | > 100 µM | > 100 µM
N/C(=N\S(=O)(=O)c1ccc(-c2ccccn2)s1)Nc1ccc(Cl)cc1 | 24.9 µM | 34.3 µM | 28.9 µM | 35.2 µM | 34.1 µM | 5.61 µM | 33.2 µM | 34.8 µM | 37.8 µM | 31.5 µM | 45.7 µM | 26.4 µM
c1ccc(C(c2cccc3c2ccc2ccccc23)C(c2ccccc2)c2cccc3c2ccc2ccccc23)cc1 (configuration not stated) | > 100 µM | > 100 µM | > 100 µM | > 100 µM | > 100 µM | > 100 µM | > 100 µM | > 100 µM | > 100 µM | > 100 µM | > 100 µM | > 100 µM
O=C(NNS(=O)(=O)c1ccc(Br)cc1)c1ccc(Cl)cc1NC(=O)C12CC3CC(CC(C3)C1)C2 | 56.6 µM | 33.4 µM | 27.3 µM | 27.2 µM | 24.7 µM | 73.9 µM | 28.2 µM | 23.4 µM | – | 28.7 µM | 28 µM | 25.6 µM
COc1cc(NS(C)(=O)=O)ccc1NCc1cnc2ccc3[nH]cccc3c12 | > 72.7 µM | > 70.3 µM | 93.9 µM | 73.9 µM | > 100 µM | 22.1 µM | 55 µM | 42.1 µM | 60.9 µM | > 89.1 µM | 39.3 µM | 35.8 µM
COc1cc(S(=O)(=O)Nc2ccc(-c3csc(N4C(=O)C(Cl)C4c4cccc(Oc5ccccc5)c4)n3)cc2)ccc1Cl (configuration not stated) | 41.8 µM | 52.1 µM | 37.4 µM | > 100 µM | 7.45 µM | > 100 µM | 36.9 µM | > 100 µM | 79.8 µM | > 100 µM | 45.8 µM | 53.4 µM
COC(=O)CCCC1(CCCC(=O)OC)CCCCCCCCC(CCCC(=O)OC)(CCCC(=O)OC)C(=O)C1=O | 24.4 µM | > 100 µM | 39 µM | > 100 µM | 47.6 µM | – | 47.9 µM | > 100 µM | > 100 µM | > 100 µM | 88.7 µM | 39.5 µM
NC(=S)Nc1ccc2c(c1)oc1ccccc12 | > 100 µM | > 100 µM | > 100 µM | > 100 µM | > 100 µM | > 100 µM | > 100 µM | > 100 µM | > 100 µM | > 100 µM | > 100 µM | > 100 µM
O=S(c1ccccc1)C1CC2CC3(CCC21O)OCCO3 (configuration not stated) | > 100 µM | > 100 µM | > 100 µM | > 100 µM | > 100 µM | > 100 µM | > 100 µM | > 100 µM | > 100 µM | > 100 µM | > 100 µM | > 100 µM
Cc1ccc(S(=O)(=O)/N=C2/N(C)CCCS2(=O)=O)cc1 | > 100 µM | > 100 µM | > 100 µM | > 100 µM | > 100 µM | > 100 µM | > 100 µM | > 100 µM | > 100 µM | > 100 µM | > 100 µM | > 100 µM
